This note sets out measurements from ChEMBL document CHEMBL1800060, “Enhancement of transcriptional activity of mutant p53 tumor suppressor protein through stabilization of tetramer formation by calix[6]arene derivatives” (Bioorg Med Chem Lett, 2010).

Calls of active or inactive are those of the source. No cut-off for these calls is given here.

In test [1] the test system is Cellular tumor antigen p53 (Homo sapiens), P04637 [R337H]. The experiment in a line: Thermal stabilization of p53 tetramerization domain-Arg337His mutant peptide assessed as change in transition temperature at 10 uM by CD spectroscopy.
For test [2], the system named is Cellular tumor antigen p53 (Homo sapiens), P04637 [R273H]. Briefly: Enhancement of transcriptional activity of p53 DNA binding domain Arg273His mutant in NCI-H1299 cells transfected p53RE-mCherry(NLS) reporter plasmid assessed as increase in fluorescence signal at 20 uM after 11 hrs by fluorescence assay. The test is classed as cell-based.
Test [3] has as its system Cellular tumor antigen p53 (Homo sapiens), P04637 [R337H]. The experiment in a line: Enhancement of transcriptional activity of EGFP tagged p53 tetramerization domain-Arg337His mutant peptide in NCI-H1299 cells transfected with p53RE-mCherry(NLS) reporter plasmid assessed as increase in fluorescence signal at 20 uM after 11 hrs by fluorescence assay relative to untreated control. Type of test: cell-based.

Test [4] shares this test system. Briefly: Thermal stabilization of p53 tetramerization domain-Arg337His mutant peptide assessed as change in transition temperature at 40 uM by CD spectroscopy.
Test [5] concerns the target Cellular tumor antigen p53 (Homo sapiens) (UniProt P04637). The experiment in a line: Enhancement of transcriptional activity of wild type p53 in NCI-H1299 cells transfectedp53RE-mCherry(NLS) reporter plasmid assessed as increase in fluorescence signal at 20 uM after 11 hrs by fluorescence assay. The test is classed as cell-based.
Test [6] relates to Cellular tumor antigen p53 (Homo sapiens), P04637 [R337H]. Briefly: Enhancement of transcriptional activity of EGFP tagged p53 tetramerization domain-Arg337His mutant peptide in NCI-H1299 cells transfected with p53RE-mCherry(NLS) reporter plasmid assessed as increase in fluorescence signal at 20 uM after 11 hrs by fluorescence assay. The test is classed as cell-based.

For the compound `COc1c2cc(Cn3cccn3)cc1Cc1cc(Cn3cccn3)cc(c1OC)Cc1cc(Cn3cccn3)cc(c1OC)Cc1cc(Cn3cccn3)cc(c1OC)Cc1cc(Cn3cccn3)cc(c1OC)Cc1cc(Cn3cccn3)cc(c1OC)C2`, the deltaT in test [1] amounted to 0 °C.
Take `COc1c2cc(Cn3ccnc3)cc1Cc1cc(Cn3ccnc3)cc(c1OC)Cc1cc(Cn3ccnc3)cc(c1OC)Cc1cc(Cn3ccnc3)cc(c1OC)Cc1cc(Cn3ccnc3)cc(c1OC)Cc1cc(Cn3ccnc3)cc(c1OC)C2`: the deltaT was 2.3 °C in test [1] and 4.1 °C in test [4]. In addition, the result in test [2] was inactive. Also, the Activity in test [3] stood at 130%. Moreover, the outcome in test [5] and in test [6] was Active.
Take `N=C(N)NCc1cc2c3c(c1)Cc1cc(CNC(=N)N)cc4c1OCCOCCOc1c(cc(CNC(=N)N)cc1Cc1cc(CNC(=N)N)cc(c1OCCOCCO3)C2)C4`: the deltaT in test [1] was 0.3 °C; in test [4] it was -0.3 °C. In addition, the result in test [6] was inactive.
